Paper PMC6720883, “In Vitro Inhibitory Effects of APINACA on Human Major Cytochrome P450, UDP-Glucuronosyltransferase Enzymes, and Drug Transporters” (Molecules, 2019)

What was measured:
OCT2 = target: T1, OCT2 (Homo sapiens, UniProt O15244); experiment: Uptake of [3-H]methyl-4-phenylpyridinium in HEK293-OCT2 cells; format: in vitro ADME
T1 construct: host or cells: HEK293 (transient overexpression)
T1 sequence (O15244 1-555): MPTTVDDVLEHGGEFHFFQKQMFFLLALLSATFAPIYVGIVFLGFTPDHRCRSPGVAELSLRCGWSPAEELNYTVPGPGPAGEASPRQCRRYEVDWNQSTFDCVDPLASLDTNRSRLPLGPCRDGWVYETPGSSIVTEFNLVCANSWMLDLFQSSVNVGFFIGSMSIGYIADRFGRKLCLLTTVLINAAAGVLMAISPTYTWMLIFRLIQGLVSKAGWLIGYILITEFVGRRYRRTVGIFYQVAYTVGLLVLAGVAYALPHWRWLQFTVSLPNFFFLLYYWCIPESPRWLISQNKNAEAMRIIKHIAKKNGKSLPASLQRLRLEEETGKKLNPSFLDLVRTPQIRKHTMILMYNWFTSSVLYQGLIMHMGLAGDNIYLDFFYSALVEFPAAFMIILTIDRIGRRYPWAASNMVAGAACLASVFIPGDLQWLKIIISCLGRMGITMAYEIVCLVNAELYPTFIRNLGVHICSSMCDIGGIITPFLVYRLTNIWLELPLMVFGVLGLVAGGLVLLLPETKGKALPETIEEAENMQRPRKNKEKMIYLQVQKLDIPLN
Description: To examine the effects of APINACA and typical inhibitors on transporter activity, the uptake of a probe substrate into HEK293 cells overexpressing the respective solute carrier transporters was measured in the presence of APINACA (final concentrations of 0–250 μM) or typical inhibitors for 5 min. The concentrations and probe substrates were selected as follows: 0.1 μM [3-H]MPP^+ (for OCT1 and OCT2), 0.1 μM [3-H]PAH (for OAT1), 0.1 μM [3-H]ES (for OAT3 and OATP1B1), and 0.1 μM [3-H]EG (for OATP1B3).
(§1) 12.5 (Systat Software, Inc.; San Jose, CA, USA). […] 1.1 (Systat Software, Inc.).

OAT3 = target: T2, OAT3 (Homo sapiens, UniProt Q8TCC7); experiment: Uptake of [3-H]estrone-3-sulfate in HEK293-OAT3 cells; format: in vitro ADME
T2 construct: host or cells: HEK293 (transient overexpression)
T2 sequence (Q8TCC7 1-542): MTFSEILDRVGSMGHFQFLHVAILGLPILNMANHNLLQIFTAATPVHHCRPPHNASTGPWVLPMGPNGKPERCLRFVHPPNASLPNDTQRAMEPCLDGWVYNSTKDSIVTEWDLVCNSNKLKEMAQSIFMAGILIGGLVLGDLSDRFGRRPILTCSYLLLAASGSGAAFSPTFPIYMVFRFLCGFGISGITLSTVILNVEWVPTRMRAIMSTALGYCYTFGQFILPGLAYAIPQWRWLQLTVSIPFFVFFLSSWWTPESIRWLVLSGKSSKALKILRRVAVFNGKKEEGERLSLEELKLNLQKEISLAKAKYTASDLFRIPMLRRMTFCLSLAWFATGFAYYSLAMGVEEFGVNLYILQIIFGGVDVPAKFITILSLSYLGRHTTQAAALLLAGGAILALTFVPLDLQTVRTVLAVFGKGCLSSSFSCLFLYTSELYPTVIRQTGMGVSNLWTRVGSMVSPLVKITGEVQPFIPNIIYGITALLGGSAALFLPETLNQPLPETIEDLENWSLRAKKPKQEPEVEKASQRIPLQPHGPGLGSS
Description: The concentrations and probe substrates were selected as follows: 0.1 μM [3-H]MPP^+ (for OCT1 and OCT2), 0.1 μM [3-H]PAH (for OAT1), 0.1 μM [3-H]ES (for OAT3 and OATP1B1), and 0.1 μM [3-H]EG (for OATP1B3).
1.1 (Systat Software, Inc.).

BCRP = target: T3, BCRP (Homo sapiens, UniProt Q9UNQ0); experiment: B to A transport of [3-H]estrone-3-sulfate in LLC-PK1-BCRP cells; format: in vitro ADME; details: human, LLC-PK1-BCRP cell monolayers on filter membranes, probe [3H]estrone-3-sulfate (0.1 μM), B to A transport
T3 sequence (Q9UNQ0 1-655): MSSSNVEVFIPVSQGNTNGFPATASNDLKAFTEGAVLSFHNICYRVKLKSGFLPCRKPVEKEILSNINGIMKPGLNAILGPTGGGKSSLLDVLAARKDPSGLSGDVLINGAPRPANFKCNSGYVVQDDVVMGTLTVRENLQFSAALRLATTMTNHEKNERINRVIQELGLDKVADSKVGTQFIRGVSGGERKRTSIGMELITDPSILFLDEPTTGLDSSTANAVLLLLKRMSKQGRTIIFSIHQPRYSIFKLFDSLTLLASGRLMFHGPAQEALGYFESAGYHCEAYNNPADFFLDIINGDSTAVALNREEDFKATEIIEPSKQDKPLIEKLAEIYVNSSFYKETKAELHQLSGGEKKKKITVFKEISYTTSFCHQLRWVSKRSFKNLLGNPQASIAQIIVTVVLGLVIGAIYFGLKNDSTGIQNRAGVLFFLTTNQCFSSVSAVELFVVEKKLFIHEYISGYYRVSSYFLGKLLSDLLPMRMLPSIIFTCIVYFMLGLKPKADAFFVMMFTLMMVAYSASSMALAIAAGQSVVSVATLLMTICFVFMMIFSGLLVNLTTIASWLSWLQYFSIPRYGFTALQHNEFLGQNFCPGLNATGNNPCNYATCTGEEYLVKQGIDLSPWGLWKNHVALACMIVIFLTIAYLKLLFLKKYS

[1] = target: human dopamine transporter; design: method as in PMID 28824464; details: human dopamine transporter overexpressed system; read-out: Ki for inhibition of dopamine uptake; cited from earlier work
UGT1A9 = target: T4, UGT1A9 (Homo sapiens, UniProt O60656); experiment: Enzyme kinetic analysis of UGT1A9 inhibition (Dixon plot) in human liver microsomes; format: in vitro ADME; design: […]; tissue Corning Life Sciences
T4 sequence (O60656 26-530): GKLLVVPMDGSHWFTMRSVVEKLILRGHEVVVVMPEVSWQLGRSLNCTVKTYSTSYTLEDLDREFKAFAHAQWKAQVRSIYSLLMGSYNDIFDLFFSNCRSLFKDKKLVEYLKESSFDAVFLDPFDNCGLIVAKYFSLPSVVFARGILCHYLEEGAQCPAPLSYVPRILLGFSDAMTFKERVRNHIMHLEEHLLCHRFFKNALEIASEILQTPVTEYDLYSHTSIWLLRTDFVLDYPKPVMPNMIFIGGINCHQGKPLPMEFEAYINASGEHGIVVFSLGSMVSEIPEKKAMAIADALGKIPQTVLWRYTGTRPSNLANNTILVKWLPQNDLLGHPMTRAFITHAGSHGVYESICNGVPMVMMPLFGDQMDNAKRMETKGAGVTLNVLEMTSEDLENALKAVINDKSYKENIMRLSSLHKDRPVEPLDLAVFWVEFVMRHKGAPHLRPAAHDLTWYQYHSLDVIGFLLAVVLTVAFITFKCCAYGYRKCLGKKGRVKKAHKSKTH
Description: The reaction was stopped by adding 100 μL of ice cold acetonitrile containing propofol glucuronide (internal standard), and the mixtures were centrifuged at 13,000× g for 4 min.
as §1

In the case of `CCCCCn1nc(C(=O)NC23CC4CC(CC(C4)C2)C3)c2ccccc21` [APINACA, N-(1-adamantyl)-1-pentyl-1H-indazole-3-carboxamide], the IC50 (OCT2) is reported as over 250 µM, the IC50 (OAT3) is reported as over 250 µM and the IC50 (BCRP) is reported as over 100 µM. For the same compound, the Ki [1] was 4.6 µM, the Ki (UGT1A9) was 5.9 µM and the “mode of inhibition of UGT1A9-catalyzed mycophenolic acid glucuronidation” value (UGT1A9; human liver microsomes, enzyme kinetics study) was “noncompetitively inhibited”.
